The text below walks through data of patent publication US7462717B2, “C6-and C9-substituted chromeno[4,3-c]isoxazoline derivatives and their use as anti-depressants” (Janssen Pharmaceutica N.V., priority 2002, dated 2008).

One test addresses T1, h5-HT transporter (Homo sapiens, UniProt P31645).
T1 construct: Human platelet membranes (Oceanix Biosciences Corporation, Hanover, Md., USA) were thawed; tissue Oceanix Biosciences Corporation; host or cells: human platelet membranes
The test can be described thus: Radioligand binding experiment for 5-HT transporter ([3H]paroxetine). The settings on record: human platelet membranes; [3H]paroxetine 0.5 nM; read-out: 5-HTT (converted). As to the method:
(§1) The interaction of the compounds of Formula (I) with hα2-receptors and h5-HT-transporters was assessed in in vitro radioligand binding experiments. In general, a low concentration of a radioligand with a high binding affinity for a particular receptor or transporter is incubated with a sample of a tissue preparation enriched in a particular receptor or transporter or with a preparation of cells expressing cloned human receptors in a buffered medium. During the incubation, the radioligand binds to the receptor or transporter. When equilibrium of binding is reached, the receptor bound radioactivity is separated from the non-bound radioactivity, and the receptor- or transporter-bound activity is counted. The interaction of the test compounds with the receptor is assessed in competition binding experiments. Various concentrations of the test compound are added to the incubation mixture containing the receptor- or transporter preparation and the radioligand. The test compound in proportion to its binding affinity and its concentration inhibits binding of the radioligand. The radioligand used for hα2A, hα2B and hα2C receptor binding was [^3H]-raulwolscine and for the h5-HT transporter was [^3H]paroxetine.
Human platelet membranes (Oceanix Biosciences Corporation, Hanover, Md., USA) were thawed, diluted in buffer (Tris-HCl 50 mM, 120 mM NaCl and 5 mM KCl) and quickly (max 3 s) homogenised with an Ultraturrax homogenizer. In a total volume of 250 μL, 50-100 μg protein was incubated with [^3H]paroxetine (NET-869) (New England Nuclear, USA) (0.5 nM final concentration) with or without competitor for 60 min at 25° C. Incubation was stopped by rapid filtration of the incubation mixture over GF/B filters, pre-wetted with 0.1% polyethyleneamine, using a Filtermate 196 harvester (Packard, Meriden, Conn.). Filters were rinsed extensively with ice-cold buffer and radioactivity on the filters was counted in a Topcount liquid scintillation counter (Packard, Meriden, Conn.). Data were expressed as cpm. Imipramine (at 1 μM final concentration) was used to determine the non-specific binding.
(§2) Data from assays in the presence of compound were calculated as a percentage of total binding measured in the absence of test compound. Inhibition curves, plotting percent of total binding versus the log value of the concentration of the test compound, were automatically generated, and sigmoidal inhibition curves were fitted using non-linear regression. The pIC50 values of test compounds were derived from individual curves. All compounds according to Formula (I) produced an inhibition at least at the hα2A site (but often also at the hα2B and hα2C sites) and simultaneously at the 5-HT transporter site of more than 50% (PIC50) at a test concentration ranging between 10^−6 M and 10^−9 M in a concentration-dependent manner.

The next test addresses T2, hα2C receptor (Homo sapiens, UniProt P18825).
T2 construct: expressed in transfected cells
T2 sequence (P18825 1-462): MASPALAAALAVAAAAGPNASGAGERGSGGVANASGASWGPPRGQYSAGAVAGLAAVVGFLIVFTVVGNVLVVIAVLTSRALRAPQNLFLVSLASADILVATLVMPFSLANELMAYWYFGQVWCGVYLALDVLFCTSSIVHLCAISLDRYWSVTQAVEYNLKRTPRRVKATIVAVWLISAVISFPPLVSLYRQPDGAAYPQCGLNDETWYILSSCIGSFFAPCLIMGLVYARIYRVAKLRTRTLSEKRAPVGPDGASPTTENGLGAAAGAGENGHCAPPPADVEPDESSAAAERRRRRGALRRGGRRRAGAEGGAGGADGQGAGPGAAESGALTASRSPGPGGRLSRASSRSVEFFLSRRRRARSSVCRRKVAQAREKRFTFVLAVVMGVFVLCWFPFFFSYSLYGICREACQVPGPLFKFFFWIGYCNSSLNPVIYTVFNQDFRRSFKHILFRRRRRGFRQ
The test can be described thus: Radioligand binding experiment for α2C-adrenergic receptor ([3H]-raulwolscine). The settings on record: membranes of CHO cells transfected with human α2C receptor; [3H]raulwolscine 1 nM. The procedure: as §1
(§3) CHO cells, stabile transfected with human adrenergic-α2A-, -α2B or α2C receptor cDNA, were cultured in Dulbecco's Modified Eagle's Medium (DMEM)/Nutrient mixture Ham's F12 (ratio 1:1) (Gibco, Gent-Belgium) supplemented with 10% heat inactivated fetal calf serum (Life Technologies, Merelbeke-Belgium) and antibiotics (100 IU/ml penicillin G, 100 μg/ml streptomycin sulphate, 110 μg/ml pyruvic acid and 100 μg/ml L-glutamine). One day before collection, cells were induced with 5 mM sodiumbutyrate. Upon 80-90% of confluence, cells were scraped in phosphate buffered saline without Ca^2+ and Mg^2+ and collected by centrifugation at 1500×g for 10 min. The cells were homogenised in Tris-HCl 50 mM using an Ultraturrax homogenizer and centrifuged for 10 min at 23,500×g. The pellet was washed once by resuspension and rehomogenization and the final pellet was resuspended in Tris-HCl, divided in 1 ml aliquots and stored at −70° C.
(§4) Membranes were thawed and re-homogenized in incubation buffer (glycylglycine 25 mM, pH 8.0). In a total volume of 500 μl, 2-10 μg protein was incubated with [^3H]raulwolscine (NET-722) (New England Nuclear, USA) (1 nM final concentration) with or without competitor for 60 min at 25° C. followed by rapid filtration over GF/B filter using a Filtermate 196 harvester (Packard, Meriden, Conn.). Filters were rinsed extensively with ice-cold rinsing buffer (Tris-HCl 50 mM pH 7.4). Filter-bound radioactivity was determined by scintillation counting in a Topcount (Packard, Meriden, Conn.) and results were expressed as counts per minute (cpm). Non-specific binding was determined in the presence of 1 μM oxymetazoline for hα2A- and hα2B-receptors and 1 μM spiroxatrine for hα2C receptors.
as §2

A further test addresses T3, hα2B receptor (Homo sapiens, UniProt P18089).
T3 construct: expressed in transfected cells
T3 sequence (P18089 1-450): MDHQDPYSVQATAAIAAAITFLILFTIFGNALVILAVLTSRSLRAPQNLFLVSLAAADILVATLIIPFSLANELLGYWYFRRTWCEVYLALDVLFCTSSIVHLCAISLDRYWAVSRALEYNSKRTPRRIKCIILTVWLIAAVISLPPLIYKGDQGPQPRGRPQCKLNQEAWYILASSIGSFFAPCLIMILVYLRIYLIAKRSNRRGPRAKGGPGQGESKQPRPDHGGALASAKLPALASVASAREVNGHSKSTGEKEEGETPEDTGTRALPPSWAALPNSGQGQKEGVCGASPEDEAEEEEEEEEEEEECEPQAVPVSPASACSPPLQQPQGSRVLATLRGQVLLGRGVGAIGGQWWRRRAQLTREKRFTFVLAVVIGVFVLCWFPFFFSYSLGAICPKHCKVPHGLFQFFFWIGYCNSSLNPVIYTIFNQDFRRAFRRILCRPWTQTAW
Nature of the test: Radioligand binding experiment for α2B-adrenergic receptor ([3H]-raulwolscine). The settings on record: membranes of CHO cells transfected with human α2B receptor; [3H]raulwolscine 1 nM. As to the method: as §1, §3, §4, §2

The next test deals with T4, hα2A receptor (Homo sapiens, UniProt P08913).
T4 construct: expressed in transfected cells
T4 sequence (P08913 1-465): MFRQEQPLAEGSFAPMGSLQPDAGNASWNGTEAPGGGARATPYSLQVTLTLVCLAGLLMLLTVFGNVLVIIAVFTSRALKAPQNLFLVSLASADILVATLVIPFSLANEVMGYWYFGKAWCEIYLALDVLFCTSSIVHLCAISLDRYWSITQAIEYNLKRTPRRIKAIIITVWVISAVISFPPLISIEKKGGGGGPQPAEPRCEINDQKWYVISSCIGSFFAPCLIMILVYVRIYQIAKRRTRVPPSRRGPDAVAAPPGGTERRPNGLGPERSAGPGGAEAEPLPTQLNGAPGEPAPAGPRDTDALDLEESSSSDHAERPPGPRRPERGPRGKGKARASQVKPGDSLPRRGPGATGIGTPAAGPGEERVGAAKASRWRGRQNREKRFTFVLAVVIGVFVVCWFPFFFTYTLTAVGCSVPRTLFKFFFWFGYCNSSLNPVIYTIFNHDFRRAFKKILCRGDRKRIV
Nature of the test: Radioligand binding experiment for α2A-adrenergic receptor ([3H]-raulwolscine). The settings on record: membranes of CHO cells transfected with human α2A receptor; [3H]raulwolscine 1 nM. As to the method:
as §1, §3, §4, §2

T1 sequence (P31645 whole entry): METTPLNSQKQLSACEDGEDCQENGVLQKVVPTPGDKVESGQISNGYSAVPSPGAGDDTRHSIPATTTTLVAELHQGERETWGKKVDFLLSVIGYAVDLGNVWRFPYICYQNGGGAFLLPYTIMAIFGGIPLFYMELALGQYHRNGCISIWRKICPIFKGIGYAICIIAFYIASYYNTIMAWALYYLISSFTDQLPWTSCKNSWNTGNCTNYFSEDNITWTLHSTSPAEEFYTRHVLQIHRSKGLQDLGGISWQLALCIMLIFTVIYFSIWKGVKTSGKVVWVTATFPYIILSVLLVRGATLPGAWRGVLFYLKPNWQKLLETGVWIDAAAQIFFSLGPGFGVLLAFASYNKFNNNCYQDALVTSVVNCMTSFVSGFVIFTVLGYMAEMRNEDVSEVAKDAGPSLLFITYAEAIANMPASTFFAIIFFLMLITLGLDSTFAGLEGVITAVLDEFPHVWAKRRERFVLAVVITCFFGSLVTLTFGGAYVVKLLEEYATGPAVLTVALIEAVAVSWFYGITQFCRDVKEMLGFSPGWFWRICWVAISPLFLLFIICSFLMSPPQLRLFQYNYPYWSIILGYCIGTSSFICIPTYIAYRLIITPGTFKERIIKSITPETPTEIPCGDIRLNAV

As to `CCNC(=O)OCCOc1cccc2c1OCC1C2=NOC1CN1CCN(CC(C)=Cc2ccccc2)CC1` (centres unmarked) [Compound 10], the IC50 is 39.8 nM at h5-HT transporter, 6.31 nM on hα2C receptor, 5.01 nM on hα2B receptor and 79.4 nM on hα2A receptor.

For the molecule `CC(=Cc1ccccc1)CN1CCN(CC2ON=C3c4cccc(OCCO)c4OCC32)CC1` (centres unmarked) [Compound 11], the IC50 at h5-HT transporter was 50.1 nM; at hα2C receptor, 3.16 nM; at hα2B receptor, 2.51 nM; at hα2A receptor it was 3.16 nM.

With `COCC(=O)OCCOc1cccc2c1OCC1C2=NOC1CN1CCN(CC(C)=Cc2ccccc2)CC1` (centres unmarked) [Compound 12], the IC50 was 126 nM at h5-HT transporter, 3.98 nM at hα2C receptor, 6.31 nM on hα2B receptor and 126 nM at hα2A receptor.

Turning to `COCC(=O)OCCOc1cccc2c1C1=NOC(CN3CCN(CC(C)=Cc4ccccc4)CC3)C1CO2` (centres unmarked) [Compound 14], the IC50 at h5-HT transporter is 1000 nM; on hα2C receptor, 1.26 nM; on hα2B receptor, 3.16 nM; on hα2A receptor it was 2.51 nM.

Take `CC(=Cc1ccccc1)CN1CCN(CC2ON=C3c4cccc(NCCN5CCCC5)c4OCC32)CC1` (centres unmarked) [Compound 16]: the IC50 was 25.1 nM on h5-HT transporter, 7.94 nM on hα2C receptor, 3.98 nM at hα2B receptor and 39.8 nM at hα2A receptor.

As for `CCNC(=O)Nc1cccc2c1OCC1C2=NOC1CN1CCN(CC(C)=Cc2ccccc2)CC1` (centres unmarked) [Compound 17], the IC50 is 10 nM on h5-HT transporter, 15.8 nM on hα2C receptor, 6.31 nM on hα2B receptor and 63.1 nM on hα2A receptor.

Turning to `COc1cc2c(c(I)c1OC)OCC1C2=NOC1CN1CCN(CC(C)=Cc2ccc(F)cc2)CC1` (centres unmarked) [Compound 18], the IC50 at h5-HT transporter is 50.1 nM; at hα2C receptor it was 25.1 nM; on hα2B receptor, 31.6 nM; on hα2A receptor, 25.1 nM.

As to `COc1cc2c(c(C#N)c1OC)OCC1C2=NOC1CN1CCN(CC(C)=Cc2ccc(F)cc2)CC1` (centres unmarked) [Compound 19], the IC50 was 126 nM on h5-HT transporter, 15.8 nM on hα2C receptor, 20 nM at hα2B receptor and 10 nM on hα2A receptor.

For the molecule `COc1cc2c(c(N3CCC3=O)c1OC)OCC1C2=NOC1CN1CCN(CC(C)=Cc2ccc(F)cc2)CC1` (centres unmarked) [Compound 20], the IC50 on h5-HT transporter was 126 nM; at hα2C receptor, 31.6 nM; on hα2B receptor, 25.1 nM; on hα2A receptor, 79.4 nM.

For the molecule `CC(=O)Nc1cccc2c1OCC1C2=NOC1CN1CCN(CC(C)=Cc2ccccc2)CC1` (centres unmarked) [Compound 22], the IC50 at h5-HT transporter was 25.1 nM; on hα2C receptor, 3.98 nM; at hα2B receptor, 2 nM; at hα2A receptor, 31.6 nM.

For `CC(=Cc1ccccc1)CN1CCN(CC2ON=C3c4cccc(NCc5ccccc5)c4OCC32)CC1` (centres unmarked) [Compound 23], the IC50 is 126 nM on h5-HT transporter, 20 nM on hα2C receptor, 50.1 nM on hα2B receptor and 63.1 nM on hα2A receptor.
